Literature values, collected in patent publication USRE46284E1, “Method of administrating an anticancer drug containing α, α, α-trifluorothymidine and thymidine phosphorylase inhibitor” (TAIHO PHARMACEUTICAL CO., LTD., priority 2005, dated 2017).

Details: human, intravenous administration

O=c1[nH]c(=O)n([C@H]2C[C@H](O)[C@@H](CO)O2)cc1C(F)(F)F [FTD, α,α,α-trifluorothymidine]
half-life in the blood: approximately 12 minutes
